According to PubChem BioAssay (NCI):
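In this assay, cells in 96-well plates receive the compound at five concentrations for 48 hours. Endpoints are linearly interpolated between the surrounding concentrations. GI50: concentration for 50% inhibition of growth. At the TGI there is no net growth.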

Columns and labels:
Experiment in all cases: DTP human tumour cell line panel, 48 h
RXF 393 renal = system: RXF 393 renal
SR leukemia = system: SR leukemia
UACC-62 melanoma = system: UACC-62 melanoma
SK-OV-3 ovarian = system: SK-OV-3 ovarian
SK-MEL-2 melanoma = system: SK-MEL-2 melanoma
EKVX NSCLC = system: EKVX NSCLC
SF-268 CNS = system: SF-268 CNS
HS 578T breast = system: HS 578T breast
DU-145 prostate = system: DU-145 prostate
MDA-MB-435 = system: MDA-MB-435

Compound CN1CCCC2[C@@H]3CCC4c5nonc5CC[C@]4(C)C3CC[C@@]21C (some centres not stated) has a TGI (RXF 393 renal) greater than 100 µM, a TGI (SR leukemia) greater than 100 µM and a TGI (UACC-62 melanoma) greater than 100 µM. The TGI (SK-OV-3 ovarian) was greater than 100 µM, the TGI (SK-MEL-2 melanoma) was greater than 100 µM and the TGI (EKVX NSCLC) was greater than 100 µM.
With CC(=O)Nc1ccc(C2CC(c3ccc([N+](=O)[O-])cc3)=Nc3ccccc3S2)cc1 (configuration not stated) the TGI (RXF 393 renal) was 34.9 µM, the TGI (SR leukemia) was 61.9 µM and the TGI (UACC-62 melanoma) was 32.1 µM. For the same compound, the TGI (SF-268 CNS) was 77.9 µM, the TGI (SK-OV-3 ovarian) was 87.8 µM and the TGI (SK-MEL-2 melanoma) was 32.9 µM. The TGI (EKVX NSCLC) was greater than 100 µM.
CCN(CC)C(=S)SSC(C)C gave a GI50 (RXF 393 renal) of 16.5 µM, a TGI (RXF 393 renal) of 31.5 µM and a GI50 (UACC-62 melanoma) of 16.7 µM. The TGI (UACC-62 melanoma) was 35.4 µM, the GI50 (SF-268 CNS) was 16.2 µM and the TGI (SF-268 CNS) was 37 µM. It also gave a GI50 (SK-OV-3 ovarian) of 30.3 µM, a TGI (SK-OV-3 ovarian) of 95.7 µM and a GI50 (HS 578T breast) of 0.936 µM. For the same compound, the TGI (HS 578T breast) was 28.3 µM, the GI50 (DU-145 prostate) was 17.1 µM and the TGI (DU-145 prostate) was 35.2 µM. The GI50 (SK-MEL-2 melanoma) was 23.3 µM, the TGI (SK-MEL-2 melanoma) was 62 µM and the GI50 (EKVX NSCLC) was 27.4 µM. The TGI (EKVX NSCLC) was 70.4 µM, the GI50 (MDA-MB-435) was 16.1 µM and the TGI (MDA-MB-435) was 49.5 µM.
O=C1NC(=NCCc2ccc(Cl)cc2)S/C1=C\c1ccc2ncccc2c1 gave a GI50 (RXF 393 renal) of 11 µM, a TGI (RXF 393 renal) greater than 25 µM and a GI50 (SR leukemia) of 6.92 µM. For the same compound, the TGI (SR leukemia) was greater than 25 µM, the GI50 (UACC-62 melanoma) was 17.4 µM and the TGI (UACC-62 melanoma) was greater than 25 µM. It also gave a GI50 (SF-268 CNS) of 11.7 µM, a TGI (SF-268 CNS) greater than 25 µM and a GI50 (SK-OV-3 ovarian) of 17.5 µM. For the same compound, the TGI (SK-OV-3 ovarian) was greater than 25 µM, the GI50 (HS 578T breast) was 9.77 µM and the TGI (HS 578T breast) was greater than 25 µM. For the same compound, the GI50 (DU-145 prostate) was 24.4 µM, the TGI (DU-145 prostate) was greater than 25 µM and the GI50 (SK-MEL-2 melanoma) was 8.28 µM. The TGI (SK-MEL-2 melanoma) was greater than 25 µM, the GI50 (MDA-MB-435) was 10 µM and the TGI (MDA-MB-435) was greater than 25 µM.
COc1cc(C)c2c(c1)CN1CN2Cc2cc(OC)cc(C)c21 gave a TGI (SR leukemia) greater than 100 µM, a TGI (UACC-62 melanoma) of 79 µM and a TGI (SF-268 CNS) greater than 100 µM. For the same compound, the TGI (SK-OV-3 ovarian) was greater than 100 µM, the TGI (SK-MEL-2 melanoma) was greater than 100 µM and the TGI (EKVX NSCLC) was greater than 100 µM.
For OCc1ccc(N(Cc2ccc(F)cc2)Cc2ccc(F)cc2)cc1Cl, the GI50 (RXF 393 renal) was 12.7 µM, the TGI (RXF 393 renal) was 26.3 µM and the GI50 (SR leukemia) was 5.51 µM. The TGI (SR leukemia) was 24.4 µM, the GI50 (UACC-62 melanoma) was 2.61 µM and the TGI (UACC-62 melanoma) was 13.7 µM. It also gave a GI50 (SF-268 CNS) of 12.4 µM, a TGI (SF-268 CNS) of 26.9 µM and a GI50 (SK-OV-3 ovarian) of 13.6 µM. The TGI (SK-OV-3 ovarian) was 26.5 µM, the GI50 (HS 578T breast) was 16.2 µM and the TGI (HS 578T breast) was 45.5 µM. It also gave a GI50 (SK-MEL-2 melanoma) of 10.6 µM, a TGI (SK-MEL-2 melanoma) of 26.9 µM and a GI50 (MDA-MB-435) of 10.2 µM. It also gave a TGI (MDA-MB-435) of 22.4 µM.
Work on O=c1c(-c2ccc3c(c2)OCO3)coc2c3c(ccc12)OCO3 yielded a TGI (SR leukemia) greater than 100 µM, a TGI (UACC-62 melanoma) greater than 100 µM and a TGI (SF-268 CNS) of 43.3 µM. It also gave a TGI (SK-OV-3 ovarian) of 40.9 µM, a TGI (HS 578T breast) of 59.4 µM and a TGI (DU-145 prostate) greater than 100 µM. For the same compound, the TGI (SK-MEL-2 melanoma) was greater than 100 µM, the TGI (EKVX NSCLC) was greater than 100 µM and the TGI (MDA-MB-435) was greater than 100 µM.
Compound COc1cc2c(/C=C3\C(=O)Nc4ccccc43)c[nH]c2cc1C has a GI50 (RXF 393 renal) of less than 0.0231 µM, a TGI (RXF 393 renal) of 0.71 µM and a GI50 (UACC-62 melanoma) of 0.0775 µM. For the same compound, the TGI (UACC-62 melanoma) was 7.43 µM, the GI50 (SF-268 CNS) was 0.861 µM and the TGI (SF-268 CNS) was greater than 100 µM. The GI50 (SK-OV-3 ovarian) was 0.0856 µM, the TGI (SK-OV-3 ovarian) was 3.21 µM and the GI50 (HS 578T breast) was less than 0.0229 µM. It also gave a TGI (HS 578T breast) of 32.1 µM, a GI50 (DU-145 prostate) of 0.0242 µM and a TGI (DU-145 prostate) of 12.3 µM. The GI50 (SK-MEL-2 melanoma) was 17.7 µM, the TGI (SK-MEL-2 melanoma) was greater than 63.4 µM and the GI50 (EKVX NSCLC) was 0.0559 µM. It also gave a TGI (EKVX NSCLC) of 26.5 µM, a GI50 (MDA-MB-435) of 0.0566 µM and a TGI (MDA-MB-435) of 0.403 µM.
Work on CCOc1c(Br)cc(Br)cc1C=C(C#N)C#N yielded a TGI (RXF 393 renal) greater than 10 µM, a TGI (SR leukemia) greater than 10 µM and a TGI (UACC-62 melanoma) greater than 10 µM. It also gave a TGI (SF-268 CNS) greater than 10 µM, a TGI (SK-OV-3 ovarian) greater than 10 µM and a TGI (HS 578T breast) greater than 10 µM. For the same compound, the TGI (SK-MEL-2 melanoma) was greater than 10 µM, the TGI (EKVX NSCLC) was greater than 10 µM and the TGI (MDA-MB-435) was greater than 10 µM.
